# Laboratory results reported in ChEMBL document CHEMBL1201862, “PubChem BioAssay data set” (2004).
#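 Cultured in 96-well plates, cells were exposed to test compound for 48 hours across five concentrations. Abbreviation: GI50, concentration required for 50% inhibition of growth.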 Active and inactive are the calls of the source. No stated cut-off is given here; in the data, active = GI50 up to about 1.1 µM and inactive = higher.
# How the values were obtained:
# Experiment in all cases: NCI anticancer screen, dose series, 48 h
# RPMI-8226 = tested on: RPMI-8226
# DU-145 = tested on: DU-145
# UO-31 = tested on: UO-31
# NCI-H23 = tested on: NCI-H23
# TK-10 = tested on: TK-10
# K562 = tested on: K562
# MDA-MB-231 = tested on: MDA-MB-231
# SF-295 = tested on: SF-295
# MDA-MB-435 = tested on: MDA-MB-435
# Malme-3M = tested on: Malme-3M
# OVCAR-5 = tested on: OVCAR-5
# SK-MEL-5 = tested on: SK-MEL-5
# SK-OV-3 = tested on: SK-OV-3
# MOLT-4 = tested on: MOLT-4
# NCI-H522 = tested on: NCI-H522
# MCF7 = tested on: MCF7
# HOP-62 = tested on: HOP-62
# HCT-116 = tested on: HCT-116
# Hs-578T = tested on: Hs-578T
# A549 = tested on: A549
# UACC-62 = tested on: UACC-62
# SNB-75 = tested on: SNB-75
# NCI-H460 = tested on: NCI-H460
# HCC 2998 = tested on: HCC 2998
# SF-268 = tested on: SF-268
# T47D = tested on: T47D
# SW-620 = tested on: SW-620
# SK-MEL-2 = tested on: SK-MEL-2
# OVCAR-4 = tested on: OVCAR-4
# SR = tested on: SR
# SNB-19 = tested on: SNB-19
# NCI-H226 = tested on: NCI-H226
# SF-539 = tested on: SF-539
# NCI/ADR-RES = tested on: NCI/ADR-RES
# ACHN = tested on: ACHN
# A498 = tested on: A498
# M14 = tested on: M14
# HL-60 = tested on: HL-60
# HCT-15 = tested on: HCT-15
# HOP-92 = tested on: HOP-92
# 786-0 = tested on: 786-0
# LOX IMVI = tested on: LOX IMVI
# U-251 = tested on: U-251
# IGROV-1 = tested on: IGROV-1
# COLO 205 = tested on: COLO 205
# EKVX = tested on: EKVX
# PC-3 = tested on: PC-3
# RXF 393 = tested on: RXF 393
# OVCAR-3 = tested on: OVCAR-3
# SK-MEL-28 = tested on: SK-MEL-28
# KM12 = tested on: KM12
# HT-29 = tested on: HT-29
# CAKI-1 = tested on: CAKI-1
# CCRF-CEM = tested on: CCRF-CEM
# SN12C = tested on: SN12C
# MDA-N = tested on: MDA-N
# UACC-257 = tested on: UACC-257
# OVCAR-8 = tested on: OVCAR-8
structure (smiles),measurement,setting,value
Cc1ccc(S(=O)(=O)NC(=O)NCc2ccc(S(N)(=O)=O)cc2)cc1,GI50,RPMI-8226,> 100 µM (inactive)
same,GI50,DU-145,> 100 µM (inactive)
same,GI50,UO-31,> 100 µM (inactive)
same,GI50,NCI-H23,> 100 µM (inactive)
same,GI50,TK-10,> 100 µM (inactive)
same,GI50,K562,> 100 µM (inactive)
same,GI50,MDA-MB-231,> 100 µM (inactive)
same,GI50,SF-295,> 100 µM (inactive)
same,GI50,MDA-MB-435,> 100 µM (inactive)
same,GI50,Malme-3M,> 100 µM (inactive)
same,GI50,OVCAR-5,> 100 µM (inactive)
same,GI50,SK-MEL-5,> 100 µM (inactive)
same,GI50,SK-OV-3,> 100 µM (inactive)
same,GI50,MOLT-4,> 100 µM (inactive)
same,GI50,NCI-H522,> 100 µM (inactive)
same,GI50,MCF7,> 100 µM (inactive)
same,GI50,HOP-62,> 100 µM (inactive)
same,GI50,HCT-116,> 100 µM (inactive)
same,GI50,Hs-578T,> 100 µM (inactive)
same,GI50,A549,> 100 µM (inactive)
same,GI50,UACC-62,> 100 µM (inactive)
same,GI50,SNB-75,> 100 µM (inactive)
same,GI50,NCI-H460,> 100 µM (inactive)
same,GI50,HCC 2998,> 100 µM (inactive)
same,GI50,SF-268,> 100 µM (inactive)
same,GI50,T47D,> 100 µM (inactive)
same,GI50,SW-620,> 100 µM (inactive)
same,GI50,SK-MEL-2,> 100 µM (inactive)
same,GI50,OVCAR-4,> 100 µM (inactive)
same,GI50,SR,> 100 µM (inactive)
same,GI50,SNB-19,> 100 µM (inactive)
same,GI50,NCI-H226,> 100 µM (inactive)
same,GI50,SF-539,> 100 µM (inactive)
same,GI50,NCI/ADR-RES,> 100 µM (inactive)
same,GI50,ACHN,> 100 µM (inactive)
same,GI50,A498,> 100 µM (inactive)
same,GI50,M14,> 100 µM (inactive)
same,GI50,HL-60,> 100 µM (inactive)
same,GI50,HCT-15,> 100 µM
same,GI50,HOP-92,> 100 µM (inactive)
same,GI50,786-0,> 100 µM (inactive)
same,GI50,LOX IMVI,> 100 µM (inactive)
same,GI50,U-251,> 100 µM (inactive)
same,GI50,IGROV-1,> 100 µM (inactive)
same,GI50,COLO 205,> 100 µM (inactive)
same,GI50,EKVX,> 100 µM (inactive)
same,GI50,PC-3,> 100 µM (inactive)
same,GI50,RXF 393,> 100 µM (inactive)
same,GI50,OVCAR-3,> 100 µM (inactive)
same,GI50,SK-MEL-28,> 100 µM (inactive)
same,GI50,KM12,> 100 µM (inactive)
same,GI50,HT-29,> 100 µM (inactive)
same,GI50,CAKI-1,> 100 µM (inactive)
CCN1C(=O)CS/C1=N/NC(=O)C(O)(c1ccccc1)C1C=CC=CC1 (centres undefined),GI50,RPMI-8226,> 10 µM (inactive)
same,GI50,NCI-H23,> 10 µM (inactive)
same,GI50,K562,> 10 µM (inactive)
same,GI50,CCRF-CEM,> 10 µM (inactive)
same,GI50,MDA-MB-435,> 10 µM (inactive)
same,GI50,Malme-3M,> 10 µM (inactive)
same,GI50,OVCAR-5,> 10 µM (inactive)
same,GI50,SK-MEL-5,> 10 µM (inactive)
same,GI50,SK-OV-3,> 10 µM (inactive)
same,GI50,MOLT-4,> 10 µM (inactive)
same,GI50,MCF7,> 10 µM (inactive)
same,GI50,HOP-62,> 10 µM (inactive)
same,GI50,A549,> 10 µM (inactive)
same,GI50,UACC-62,> 10 µM (inactive)
same,GI50,SNB-75,> 10 µM (inactive)
same,GI50,NCI-H460,> 10 µM (inactive)
same,GI50,SF-268,> 10 µM (inactive)
same,GI50,T47D,> 10 µM (inactive)
same,GI50,SW-620,> 10 µM (inactive)
same,GI50,SK-MEL-2,> 10 µM (inactive)
same,GI50,OVCAR-4,> 10 µM (inactive)
same,GI50,SR,> 10 µM (inactive)
same,GI50,NCI/ADR-RES,> 10 µM (inactive)
same,GI50,ACHN,> 10 µM (inactive)
same,GI50,M14,> 10 µM (inactive)
same,GI50,HL-60,> 10 µM (inactive)
same,GI50,HOP-92,> 10 µM (inactive)
same,GI50,U-251,> 10 µM (inactive)
same,GI50,IGROV-1,> 10 µM (inactive)
same,GI50,COLO 205,> 10 µM (inactive)
same,GI50,RXF 393,> 10 µM (inactive)
same,GI50,SK-MEL-28,> 10 µM (inactive)
same,GI50,CAKI-1,> 10 µM (inactive)
O=C1/C(=C/c2ccccc2)NC(=S)N1CN1CCCCC1,GI50,RPMI-8226,> 100 µM (inactive)
same,GI50,SN12C,> 100 µM (inactive)
same,GI50,DU-145,> 100 µM (inactive)
same,GI50,UO-31,> 100 µM (inactive)
same,GI50,NCI-H23,> 100 µM (inactive)
same,GI50,MDA-N,> 100 µM (inactive)
same,GI50,K562,> 100 µM (inactive)
same,GI50,MDA-MB-231,> 100 µM (inactive)
same,GI50,CCRF-CEM,> 100 µM (inactive)
same,GI50,SF-295,> 100 µM (inactive)
same,GI50,MDA-MB-435,> 100 µM (inactive)
same,GI50,OVCAR-5,> 100 µM (inactive)
same,GI50,SK-MEL-5,> 100 µM (inactive)
same,GI50,SK-OV-3,> 100 µM (inactive)
same,GI50,MOLT-4,> 100 µM (inactive)
same,GI50,MCF7,> 100 µM (inactive)
same,GI50,HOP-62,> 100 µM (inactive)
same,GI50,HCT-116,> 100 µM (inactive)
same,GI50,Hs-578T,> 100 µM (inactive)
same,GI50,A549,> 100 µM (inactive)
same,GI50,UACC-62,> 100 µM (inactive)
same,GI50,SNB-75,> 100 µM (inactive)
same,GI50,SF-268,> 100 µM (inactive)
same,GI50,SW-620,> 100 µM (inactive)
same,GI50,SK-MEL-2,> 100 µM (inactive)
same,GI50,OVCAR-4,15 µM (inactive)
same,GI50,SR,> 100 µM (inactive)
same,GI50,UACC-257,16.3 µM (inactive)
same,GI50,SNB-19,> 100 µM (inactive)
same,GI50,NCI-H226,> 100 µM (inactive)
same,GI50,NCI/ADR-RES,> 100 µM (inactive)
same,GI50,ACHN,> 100 µM (inactive)
same,GI50,A498,99.5 µM (inactive)
same,GI50,M14,> 100 µM (inactive)
same,GI50,HCT-15,> 100 µM
same,GI50,HOP-92,> 100 µM (inactive)
same,GI50,786-0,> 100 µM (inactive)
same,GI50,LOX IMVI,> 100 µM (inactive)
same,GI50,U-251,> 100 µM (inactive)
same,GI50,IGROV-1,> 100 µM (inactive)
same,GI50,COLO 205,> 100 µM (inactive)
same,GI50,EKVX,> 100 µM (inactive)
same,GI50,PC-3,> 100 µM (inactive)
same,GI50,OVCAR-3,> 100 µM (inactive)
same,GI50,SK-MEL-28,> 100 µM (inactive)
same,GI50,OVCAR-8,> 100 µM (inactive)
same,GI50,KM12,> 100 µM (inactive)
same,GI50,HT-29,> 100 µM (inactive)
